Laboratory results published in PubChem BioAssay AID248 (DTP/NCI, 2004).
Where “and” joins values, the source holds several entries; their conditions need not be identical. Equal values may be shown once. Toxic doses and inconclusive results are not listed. Rule as the data show it: active = T/C of 150% or more; inactive = T/C below 125%.

System: L1210 leukemia ip in BDF1 mice, survival T/C
Assay: NCI In Vivo Anticancer Drug Screen. Data for tumor model L1210 Leukemia (intraperitoneal) in B6D2F1 (BDF1) mice
Settings: endpoint: mean survival time, higher = longer survival
Method in brief: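 Value reflects the ratio of survival in compound-treated mice to survival in vehicle-treated controls, with both groups carrying the same transplanted tumor.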

[1] = dose: 25.0 mg/kg/injection, schedule: Q01DX009 (ip), vehicle: saline
[2] = dose: 50.0 mg/kg/injection, schedule: Q01DX009 (ip), vehicle: saline
[3] = dose: 100.0 mg/kg/injection, schedule: Q01DX001 (ip), vehicle: saline
[4] = dose: 100.0 mg/kg/injection, schedule: Q01DX009 (ip), vehicle: saline
[5] = dose: 200.0 mg/kg/injection, schedule: Q01DX001 (ip), vehicle: saline
[6] = dose: 400.0 mg/kg/injection, schedule: Q01DX001 (ip), vehicle: saline
[7] = dose: 100.0 mg/kg/injection, schedule: Q01DX009 (ip), vehicle: Klucel (hydroxypropylcellulose) (HPC)
[8] = dose: 100.0 mg/kg/injection, schedule: Q04DX003 (ip), vehicle: Klucel (hydroxypropylcellulose) (HPC)
[9] = dose: 200.0 mg/kg/injection, schedule: Q01DX009 (ip), vehicle: Klucel (hydroxypropylcellulose) (HPC)
[10] = dose: 200.0 mg/kg/injection, schedule: Q04DX003 (ip), vehicle: Klucel (hydroxypropylcellulose) (HPC)
[11] = dose: 400.0 mg/kg/injection, schedule: Q01DX009 (ip), vehicle: Klucel (hydroxypropylcellulose) (HPC)
[12] = dose: 400.0 mg/kg/injection, schedule: Q04DX003 (ip), vehicle: Klucel (hydroxypropylcellulose) (HPC)
[13] = dose: 100.0 mg/kg/injection, schedule: Q01DX009 (ip), vehicle: saline with Tween-80
[14] = dose: 100.0 mg/kg/injection, schedule: Q04DX003 (ip), vehicle: saline with Tween-80
[15] = dose: 200.0 mg/kg/injection, schedule: Q01DX009 (ip), vehicle: saline with Tween-80
[16] = dose: 200.0 mg/kg/injection, schedule: Q04DX003 (ip), vehicle: saline with Tween-80
[17] = dose: 400.0 mg/kg/injection, schedule: Q01DX009 (ip), vehicle: saline with Tween-80
[18] = dose: 400.0 mg/kg/injection, schedule: Q04DX003 (ip), vehicle: saline with Tween-80
[19] = dose: 50.0 mg/kg/injection, schedule: Q01DX001 (ip), vehicle: saline
[20] = dose: 100.0 mg/kg/injection, schedule: Q01DX001 (ip), vehicle: Klucel (hydroxypropylcellulose) (HPC)
[21] = dose: 200.0 mg/kg/injection, schedule: Q01DX001 (ip), vehicle: Klucel (hydroxypropylcellulose) (HPC)
[22] = dose: 400.0 mg/kg/injection, schedule: Q01DX001 (ip), vehicle: Klucel (hydroxypropylcellulose) (HPC)
[23] = dose: 100.0 mg/kg/injection, schedule: Q01DX001 (ip), vehicle: carboxymethylcellulose (CMC)
[24] = dose: 200.0 mg/kg/injection, schedule: Q01DX001 (ip), vehicle: carboxymethylcellulose (CMC)
[25] = dose: 400.0 mg/kg/injection, schedule: Q01DX001 (ip), vehicle: carboxymethylcellulose (CMC)

Measured: T/C

CCN(CC)CCOC(=O)c1ccccc1N(c1ccccc1)c1ccccc1
inactive: [1] 98 % of control | [2] 98 % of control | dose: 62.5 mg/kg/injection, schedule: Q01DX015 (ip), vehicle: saline 91 % of control | [3] 92 % of control | [4] 98 % of control | dose: 100.0 mg/kg/injection, schedule: Q04DX003 (ip), vehicle: acetone 96 % of control | dose: 125.0 mg/kg/injection, schedule: Q01DX015 (ip), vehicle: saline 95 % of control | dose: 150.0 mg/kg/injection, schedule: Q01DX009 (ip), vehicle: acetone 96 % of control | [5] 103 % of control | [6] 98 % of control

CCOC(=O)C1(C)CCN(C)C1=O (stereo unspecified)
inactive: [3] 96 % of control | [5] 96 % of control | [6] 96 % of control

O=C(O)C1C2CC(C(Br)C2Br)C1C(=O)O (stereo unspecified)
inactive: [3] 98 % of control | [7] 95 % of control | dose: 100.0 mg/kg/injection, schedule: Q01DX009 (ip), vehicle: acetone 98 % of control | [8] 100 % of control | dose: 100.0 mg/kg/injection, schedule: Q04DX003 (ip), vehicle: saline 94 % of control | [5] 95 % of control | [9] 97 % of control | dose: 200.0 mg/kg/injection, schedule: Q01DX009 (ip), vehicle: acetone 93 % of control | [10] 103 % of control | dose: 200.0 mg/kg/injection, schedule: Q04DX003 (ip), vehicle: saline 94 % of control | [6] 96 % of control | [11] 98 % of control | dose: 400.0 mg/kg/injection, schedule: Q01DX009 (ip), vehicle: acetone 104 % of control | [12] 105 % of control | dose: 400.0 mg/kg/injection, schedule: Q04DX003 (ip), vehicle: saline 91 % of control

CN(N=O)C(=O)NC1C(CO)OC(n2cnc3c(N)ncnc32)C1O (stereo unspecified)
inactive: dose: 13.0 mg/kg/injection, schedule: Q01DX001 (ip), vehicle: saline with Tween-80 104 % of control | dose: 20.0 mg/kg/injection, schedule: Q01DX001 (ip), vehicle: saline with Tween-80 106 % of control | dose: 30.0 mg/kg/injection, schedule: Q01DX001 (ip), vehicle: saline with Tween-80 106 % of control | dose: 44.0 mg/kg/injection, schedule: Q01DX001 (ip), vehicle: saline with Tween-80 116 % of control | dose: 67.0 mg/kg/injection, schedule: Q01DX001 (ip), vehicle: saline with Tween-80 117 % of control | dose: 100.0 mg/kg/injection, schedule: Q01DX001 (ip), vehicle: saline with Tween-80 123 % of control | dose: 150.0 mg/kg/injection, schedule: Q01DX001 (ip), vehicle: saline with Tween-80 117 % of control

COC1CC(N=[N+]=[N-])C(O)C(C)O1 (stereo unspecified)
inactive: [13] 109 % of control and 105 % of control | [14] 97 % of control and 96 % of control | [15] 107 % of control and 89 % of control | [16] 103 % of control and 97 % of control | [17] 104 % of control and 100 % of control | [18] 108 % of control and 103 % of control

C[N+]1(C)CCOC(O)(c2ccccc2)C1 (stereo unspecified)
inactive: dose: 25.0 mg/kg/injection, schedule: Q01DX001 (ip), vehicle: saline 88 % of control | [19] 98 % of control | [3] 95 % of control and 101 % of control

O=C(O)C1C2C=CC(O2)C1C(=O)NCc1cccnc1 (stereo unspecified)
inactive: [3] 106 % of control | [5] 94 % of control | [6] 95 % of control

O=C(/C=C\c1ccc2c(c1)OCO2)/C=C/c1ccc2c(c1)OCO2
inactive: [7] 97 % of control | [8] 92 % of control | [14] 97 % of control | [9] 88 % of control | [10] 101 % of control | [16] 94 % of control | [11] 87 % of control | [12] 94 % of control | [18] 90 % of control

CC(=O)OC1CCC2(C)C(=CCC3C2CCC2(C)C(C(C)C(N)=O)CCC32)C1 (stereo unspecified)
inactive: [20] 90 % of control and 91 % of control | [21] 94 % of control and 91 % of control | [22] 87 % of control and 100 % of control

CCOC(=O)CC1OC(=O)c2ccccc21 (stereo unspecified)
inactive: dose: 100.0 mg/kg/injection, schedule: Q04DX002 (ip), vehicle: saline with Tween-80 97 % of control | dose: 200.0 mg/kg/injection, schedule: Q04DX002 (ip), vehicle: saline with Tween-80 104 % of control | dose: 400.0 mg/kg/injection, schedule: Q04DX002 (ip), vehicle: saline with Tween-80 108 % of control

O=S(=O)(OCC#CCOS(=O)(=O)c1cccs1)c1cccs1
inactive: dose: 6.2 mg/kg/injection, schedule: Q01DX009 (ip), vehicle: Klucel (hydroxypropylcellulose) (HPC) 101 % of control | dose: 12.5 mg/kg/injection, schedule: Q01DX009 (ip), vehicle: Klucel (hydroxypropylcellulose) (HPC) 111 % of control | dose: 25.0 mg/kg/injection, schedule: Q01DX009 (ip), vehicle: Klucel (hydroxypropylcellulose) (HPC) 105 % of control | [20] 109 % of control | [8] 97 % of control | [21] 106 % of control | [10] 105 % of control | [22] 103 % of control

FC(F)C(F)(F)C(F)(F)C(F)(F)C(F)(F)C(F)(F)C(F)(F)F
inactive: [3] 97 % of control | [5] 100 % of control | [6] 95 % of control

CC(C)(O)CNCCCN
inactive: dose: 75.0 mg/kg/injection, schedule: Q01DX001 (ip), vehicle: saline 96 % of control | dose: 150.0 mg/kg/injection, schedule: Q01DX001 (ip), vehicle: saline 94 % of control | dose: 300.0 mg/kg/injection, schedule: Q01DX001 (ip), vehicle: saline 102 % of control

CNc1c(Cl)cc(/C=C2\C=Cc3ccccc32)cc1Cl
inactive: [23] 101 % of control | [24] 101 % of control | [25] 95 % of control

CCOC(=O)C(Cc1c[nH]c2ccccc12)(NC(C)=O)C(=O)OCC
inactive: [13] 88 % of control | [15] 90 % of control | [17] 94 % of control

CCCCN1CC2CCCC1O2 (stereo unspecified)
inactive: [19] 97 % of control | [3] 95 % of control

CC(=O)c1cc(C)[nH]c1C
inactive: dose: 100.0 mg/kg/injection, schedule: Q01DX009 (ip), vehicle: saline sonified 100 % of control | [8] 89 % of control | [10] 106 % of control | dose: 400.0 mg/kg/injection, schedule: Q01DX009 (ip), vehicle: saline sonified 89 % of control

CCCCCCCCCCCCCCCc1ccc2c3c(cccc13)C=C2
inactive: [23] 92 % of control | [24] 92 % of control | [25] 90 % of control

CN/C([S-])=N/N=C/C(=N/N=C(\[S-])NC)c1ccccc1.[Zn+2]
inactive: dose: 6.25 mg/kg/injection, schedule: Q04DX002 (ip), vehicle: Klucel (hydroxypropylcellulose) (HPC) 101 % of control | dose: 12.5 mg/kg/injection, schedule: Q04DX002 (ip), vehicle: Klucel (hydroxypropylcellulose) (HPC) 97 % of control

CN=C(c1ccc(NC(=O)c2ccc(C(=O)Nc3ccc(C(=NC)N(C)C)cc3)c(Cl)c2)cc1)N(C)C
inactive: dose: 0.94 mg/kg/injection, schedule: Q01DX Z (ip), vehicle: saline 98 % of control | dose: 1.88 mg/kg/injection, schedule: Q01DX Z (ip), vehicle: saline 87 % of control

Nc1cc(Cl)c([N+](=O)[O-])c(N)n1
inactive: [20] 101 % of control | [21] 106 % of control | [22] 108 % of control

Nc1nc(N)c(N=Nc2ccc(SCC(=O)O)cc2)c(=O)[nH]1
inactive: [3] 93 % of control | [5] 98 % of control | [6] 96 % of control

C[P+]1(C)CC2OC23CCCCC31 (stereo unspecified)
inactive: dose: 12.5 mg/kg/injection, schedule: Q01DX009 (ip), vehicle: saline 98 % of control | [1] 93 % of control | [2] 94 % of control | [4] 96 % of control

O=C(NOCc1cc2c(cc1Cl)OCO2)c1ccc(S(=O)(=O)F)cc1
inactive: dose: 100.0 mg/kg/injection, schedule: Q04DX003 (ip), vehicle: saline sonified 95 % of control
